Reference: patent US20260306463A1, “SIK INHIBITORS TO TREAT CHRONIC KIDNEY DISEASE” (The General Hospital Corporation, priority 2023, published 2026)
Entries after “also recorded” stand apart in the source; their conditions may differ.

Test system: kidney cell clusters
Test: single cell RNA-sequencing of dissociated kidneys, adenine CKD mice
Type: in vivo, mouse
Settings: SK-124 vs vehicle, adenine diet
Description: FIGS. 6A-6F. The effects of SK-124 treatment at the transcriptomic level in adenine-induced mouse chronic kidney disease. RNA-seq was performed on whole kidney RNA samples (n=7/group) from FIG. 1. Volcano plot show gene regulated (>2-fold change, p(adj)<0.05) by CKD (versus control diet, A) or in CKD by SK-124 (versus vehicle control, B). In Volcano plot, representative fibrosis markers (Col3a1, Vim, Serpinel) and proximal tubule integrity (Lrp2. Atplai, and Hnf4a) are shown. Scatterplot (C) and heatmap (D) showing integration of individual RNA-seq comparisons. […] (E) Single cell RNA-sequencing was performed on dissociated kidneys from adenine diet fed mice treated with vehicle or SK-124 (n=4/group). […] (F) Relative cellularity of each annotated cluster is shown in pie chart format for adenine+vehicle (CKD-Veh) or adenine+SK-124 (CKD-SK-124) mice.
To perform single cell RNA sequencing, mouse kidneys were harvested and immediately dissociated in liberase TH (Millipore Sigma, 05401135001) at 37 degrees for 1 hour at 600 rpm. After removing red blood cells using red blood cell lysis buffer (Sigma, R7757), the cells were further dissociated in Accumax (Stemcell Technologies, 7921) and submitted to MGH Department of Molecular Biology for gel beads in emulsion (GEM) formation and subsequent single cell RNA sequencing using the 10× Genomics Chromium 3′ droplet-based sequencing platform. The CellRanger toolkit (v6.0.2) by 10× Genomics was used to 1) align the sequencing reads to the mouse reference transcriptome (mm10). 2) quantify gene expression, resulting in gene-by-cell UMI count matrices, and 3) aggregate all samples into a single feature barcode matrix containing all the data for downstream analysis. All single cell data analysis was performed in the R software environment for statistical computing and graphics using the package Seurat.

## CCc1nnc(-c2c(OC)cc(-c3cnc4cc(-c5cnn(C)c5)ccn34)cc2OC)o1 [SK-124, 2-[2,6-Dimethoxy-4-[7-(1-methylpyrazol-4-yl)imidazo[1,2-a]pyridin-3-yl]phenyl]-5-ethyl-1,3,4-oxadiazole]
  fibroblast cluster cellularity: reduces fibroblast cluster cellularity
  injury markers (failed repair proximal tubule cells, fibroblasts, and myofibroblasts): reduced injury markers
  numbers of healthy proximal tubule (epithelial) cells: increases numbers of healthy epithelial cells; also recorded: increased numbers of healthy proximal tubule cells
